Source: patent publication US9073855B2, “BCL-2 selective apoptosis-inducing agents for the treatment of cancer and immune diseases” (AbbVie Inc., priority 2008, dated 2015)

How the values were obtained:
GST-Bcl-2 = GST-Bcl-2 (Homo sapiens, UniProt P10415); experiment: TR-FRET binding assay, GST-Bcl-2 with F-Bak peptide probe; settings: TR-FRET Binding Affinity, GST-Bcl-2, F-Bak peptide probe
How it was run: (§1)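 Compounds were serially diluted in DMSO from a 50 μM starting solution (2× the starting concentration; 10% DMSO). Plates were incubated for 3 h at room temperature, and TR-FRET was read with 340/35 nm excitation and emission at 520/525 nm (F-Bak) and 495/510 nm (Tb antibody). Ki values were calculated using Wang's competitive-binding equation.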

GST-Bcl-XL = GST-Bcl-XL (Homo sapiens, UniProt Q07817); experiment: TR-FRET binding assay, GST-Bcl-XL with F-Bak peptide probe; settings: TR-FRET Binding Affinity, GST-Bcl-XL, F-Bak peptide probe
GST-Bcl-XL, sequence (Q07817 whole entry): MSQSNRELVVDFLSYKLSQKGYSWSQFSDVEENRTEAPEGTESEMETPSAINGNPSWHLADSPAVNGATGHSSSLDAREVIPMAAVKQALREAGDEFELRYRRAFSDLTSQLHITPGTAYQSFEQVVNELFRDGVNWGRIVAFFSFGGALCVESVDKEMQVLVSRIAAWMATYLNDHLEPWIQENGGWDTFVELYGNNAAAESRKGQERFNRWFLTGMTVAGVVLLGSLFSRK
How it was run: as §1

Canine platelets = experiment: Platelet cell viability assay (platelet-rich plasma, Cell Titer Glo); assay type: cell-based; settings: Canis lupus familiaris, 5 h, isolated canine platelets ex vivo, five hours at 37° C.
How it was run: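 Isolated canine platelets were incubated ex vivo with a range of compound concentrations. After 20 min equilibration at room temperature, viability was measured by Cell Titer Glo luminescence.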

FL5.12/Bcl-2 cells = experiment: FL5.12/Bcl-2 cell viability assay under IL-3 withdrawal (CellTitre Glo); assay type: cell-based, murine; settings: Mus musculus, IL-3 withdrawn 48 hrs, then 24 hrs with compound
How it was run: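 Viability measured by CellTitre Glo after FL5.12/Bcl-2 murine cells, starved of IL-3 for 48 hrs, were treated with compounds for another 24 hrs. Killing reflects inhibition of Bcl-2 sequestration of Bim and Puma.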

GST-Bcl-2, sequence (P10415 whole entry): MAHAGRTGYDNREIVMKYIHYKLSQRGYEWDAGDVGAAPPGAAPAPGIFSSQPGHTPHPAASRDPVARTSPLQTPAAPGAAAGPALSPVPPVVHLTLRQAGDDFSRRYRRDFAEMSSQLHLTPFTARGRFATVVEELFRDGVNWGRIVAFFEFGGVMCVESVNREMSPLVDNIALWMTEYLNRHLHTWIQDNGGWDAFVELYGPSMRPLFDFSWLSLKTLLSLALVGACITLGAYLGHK

CN(C)CCOc1ccc(-c2ccc(Cl)cc2)c(CN2CCN(c3ccc(C(=O)NS(=O)(=O)c4ccc(NCC5CCOCC5)c([N+](=O)[O-])c4)c(Oc4cccc5[nH]ccc45)c3)CC2)c1 [Example 125, 4-[4-({4′-chloro-4-[2-(dimethylamino)ethoxy]-1,1′-biphenyl-2-yl}methyl)piperazin-1-yl]-2-(1H-indol-4-yloxy)-N-({3-nitro-4-[(tetrahydro-2H-pyran-4-ylmethyl)amino]phenyl}sulfonyl)benzamide]
Ki (GST-Bcl-2): 0.003 nM | Ki (GST-Bcl-XL): 11.6 nM | EC50 (Canine platelets): 44800 nM | EC50 (FL5.12/Bcl-2 cells): 10 nM

CC1(C)CCC(CN2CCN(c3ccc(C(=O)NS(=O)(=O)c4ccc(NCCCN5CCCC5)c([N+](=O)[O-])c4)c(Oc4ccc5[nH]ccc5c4)c3)CC2)=C(c2ccc(Cl)cc2)C1 [Example 97, 4-(4-{[2-(4-chlorophenyl)-4,4-dimethylcyclohex-1-en-1-yl]methyl}piperazin-1-yl)-2-(1H-indol-5-yloxy)-N-({3-nitro-4-[(3-pyrrolidin-1-ylpropyl)amino]phenyl}sulfonyl)benzamide]
Ki (GST-Bcl-2): 0.027 nM | Ki (GST-Bcl-XL): 2.61 nM | EC50 (Canine platelets): 14100 nM | EC50 (FL5.12/Bcl-2 cells): 13 nM

CN(C)CCCNc1ccc(S(=O)(=O)NC(=O)c2ccc(N3CCN(CC4=C(c5ccc(Cl)cc5)CC(C)(C)CC4)CC3)cc2Oc2ccc3[nH]ccc3c2)cc1S(=O)(=O)C(F)(F)F [Example 170, 4-(4-{[2-(4-chlorophenyl)-4,4-dimethylcyclohex-1-en-1-yl]methyl}piperazin-1-yl)-N-({4-{[3-(dimethylamino)propyl]amino}-3-[(trifluoromethyl)sulfonyl]phenyl}sulfonyl)-2-(1H-indol-5-yloxy)benzamide]
Ki (GST-Bcl-2): 0.126 nM | Ki (GST-Bcl-XL): 3.8 nM | EC50 (Canine platelets): 7350 nM | EC50 (FL5.12/Bcl-2 cells): 15 nM

CN(C)CCOc1cccc(-c2ccc(Cl)cc2)c1CN1CCN(c2ccc(C(=O)NS(=O)(=O)c3ccc(NCCCN4CCCC4)c([N+](=O)[O-])c3)c(Oc3ccc4[nH]ccc4c3)c2)CC1 [Example 134, 4-[4-({4′-chloro-3-[2-(dimethylamino)ethoxy]-1,1′-biphenyl-2-yl}methyl)piperazin-1-yl]-2-(1H-indol-5-yloxy)-N-({3-nitro-4-[(3-pyrrolidin-1-ylpropyl)amino]phenyl}sulfonyl)benzamide]
Ki (GST-Bcl-2): 0.052 nM | Ki (GST-Bcl-XL): 18 nM | EC50 (Canine platelets): 4720 nM | EC50 (FL5.12/Bcl-2 cells): 48 nM

CN(C)CCOc1cccc(-c2ccc(Cl)cc2)c1CN1CCN(c2ccc(C(=O)NS(=O)(=O)c3ccc(NCC4CCOCC4)c([N+](=O)[O-])c3)c(Oc3ccccc3)c2)CC1 [Example 122, 4-[4-({4′-chloro-3-[2-(dimethylamino)ethoxy]-1,1′-biphenyl-2-yl}methyl)piperazin-1-yl]-N-({3-nitro-4-[(tetrahydro-2H-pyran-4-ylmethyl)amino]phenyl}sulfonyl)-2-phenoxybenzamide]
Ki (GST-Bcl-2): 0.058 nM | Ki (GST-Bcl-XL): 12.1 nM | EC50 (Canine platelets): > 50000 nM | EC50 (FL5.12/Bcl-2 cells): 40 nM

CN(C)CCOc1cccc(-c2ccc(Cl)cc2)c1CN1CCN(c2ccc(C(=O)NS(=O)(=O)c3ccc(NCCCN4CCCC4)c([N+](=O)[O-])c3)c(Oc3ccccc3)c2)CC1 [Example 123, 4-[4-({4′-chloro-3-[2-(dimethylamino)ethoxy]-1,1′-biphenyl-2-yl}methyl)piperazin-1-yl]-N-({3-nitro-4-[(3-pyrrolidin-1-ylpropyl)amino]phenyl}sulfonyl)-2-phenoxybenzamide]
Ki (GST-Bcl-2): 0.015 nM | Ki (GST-Bcl-XL): 1.37 nM | EC50 (Canine platelets): 2810 nM | EC50 (FL5.12/Bcl-2 cells): 87 nM

CN1CCC(Nc2ccc(S(=O)(=O)NC(=O)c3ccc(N4CCN(CC5=C(c6ccc(Cl)cc6)CCCCCC5)CC4)cc3Oc3cccc4[nH]ccc34)cc2[N+](=O)[O-])CC1 [Example 146, 4-(4-{[2-(4-chlorophenyl)cyclooct-1-en-1-yl]methyl}piperazin-1-yl)-2-(1H-indol-4-yloxy)-N-({4-[(1-methylpiperidin-4-yl)amino]-3-nitrophenyl}sulfonyl)benzamide]
Ki (GST-Bcl-2): 44.2 nM | Ki (GST-Bcl-XL): > 660 nM | EC50 (Canine platelets): 22000 nM | EC50 (FL5.12/Bcl-2 cells): 152 nM

O=C(NS(=O)(=O)c1ccc(NCCCN2CCOCC2)c([N+](=O)[O-])c1)c1ccc(N2CCN(Cc3ccccc3-c3ccc(Cl)cc3)CC2)cc1Oc1ccccc1 [Example 155, 4-{4-[(4′-chloro-1,1′-biphenyl-2-yl)methyl]piperazin-1-yl}-N-({4-[(3-morpholin-4-ylpropyl)amino]-3-nitrophenyl}sulfonyl)-2-phenoxybenzamide]
Ki (GST-Bcl-2): 0.484 nM | Ki (GST-Bcl-XL): 37.7 nM | EC50 (Canine platelets): > 50000 nM | EC50 (FL5.12/Bcl-2 cells): 421 nM

COc1ccc(C2=C(CN3CCN(c4ccc(C(=O)NS(=O)(=O)c5ccc(NCCCN6CCCC6)c([N+](=O)[O-])c5)c(Oc5cccc6[nH]ccc56)c4)CC3)CCC(C)(C)C2)cc1 [Example 68, 2-(1H-indol-4-yloxy)-4-(4-{[2-(4-methoxyphenyl)-4,4-dimethylcyclohex-1-en-1-yl]methyl}piperazin-1-yl)-N-({3-nitro-4-[(3-pyrrolidin-1-ylpropyl)amino]phenyl}sulfonyl)benzamide]
Ki (GST-Bcl-2): 1.23 nM | Ki (GST-Bcl-XL): 14 nM | EC50 (Canine platelets): > 50000 nM | EC50 (FL5.12/Bcl-2 cells): 44 nM

CN(C)CCOc1ccc(-c2ccc(Cl)cc2)c(CN2CCN(c3ccc(C(=O)NS(=O)(=O)c4ccc(NC5CCN(C)CC5)c([N+](=O)[O-])c4)c(Oc4ccccc4)c3)CC2)c1 [Example 133, 4-[4-({4′-chloro-4-[2-(dimethylamino)ethoxy]-1,1′-biphenyl-2-yl}methyl)piperazin-1-yl]-N-({4-[(1-methylpiperidin-4-yl)amino]-3-nitrophenyl}sulfonyl)-2-phenoxybenzamide]
Ki (GST-Bcl-2): 0.009 nM | Ki (GST-Bcl-XL): 0.281 nM | EC50 (Canine platelets): 95 nM | EC50 (FL5.12/Bcl-2 cells): 20 nM

CN1CCC(Nc2ccc(S(=O)(=O)NC(=O)c3ccc(N4CCN(CC5=C(c6ccc(Cl)cc6)CCCC5)CC4)cc3Oc3ccc4[nH]ccc4c3)cc2[N+](=O)[O-])CC1 [Example 75, 4-(4-{[2-(4-chlorophenyl)cyclohex-1-en-1-yl]methyl}piperazin-1-yl)-2-(1H-indol-5-yloxy)-N-({4-[(1-methylpiperidin-4-yl)amino]-3-nitrophenyl}sulfonyl)benzamide]
Ki (GST-Bcl-2): 0.125 nM | Ki (GST-Bcl-XL): 107 nM | EC50 (Canine platelets): 17700 nM | EC50 (FL5.12/Bcl-2 cells): 22 nM

O=C(NS(=O)(=O)c1ccc(NCCCN2CCCC2)c([N+](=O)[O-])c1)c1ccc(N2CCN(CC3=C(c4ccc(Cl)cc4)CCCCCC3)CC2)cc1Oc1cccc2[nH]ccc12 [Example 142, 4-(4-{[2-(4-chlorophenyl)cyclooct-1-en-1-yl]methyl}piperazin-1-yl)-2-(1H-indol-4-yloxy)-N-({3-nitro-4-[(3-pyrrolidin-1-ylpropyl)amino]phenyl}sulfonyl)benzamide]
Ki (GST-Bcl-2): 3.66 nM | Ki (GST-Bcl-XL): 102 nM | EC50 (Canine platelets): > 50000 nM | EC50 (FL5.12/Bcl-2 cells): 270 nM

CC1(C)CCC(CN2CCN(c3ccc(C(=O)NS(=O)(=O)c4ccc(NCCCN5CCCC5)c([N+](=O)[O-])c4)c(Oc4cccc5[nH]ccc45)c3)CC2)=C(c2ccc(Cl)cc2)C1 [Example 102, 4-(4-{[2-(4-chlorophenyl)-4,4-dimethylcyclohex-1-en-1-yl]methyl}piperazin-1-yl)-2-(1H-indol-4-yloxy)-N-({3-nitro-4-[(3-pyrrolidin-1-ylpropyl)amino]phenyl}sulfonyl)benzamide]
Ki (GST-Bcl-2): 0.035 nM | Ki (GST-Bcl-XL): 2.24 nM | EC50 (Canine platelets): 20200 nM | EC50 (FL5.12/Bcl-2 cells): 20 nM

O=C(NS(=O)(=O)c1ccc(NCC2CCOCC2)c([N+](=O)[O-])c1)c1ccc(N2CCN(Cc3cc(OCCN4CCOCC4)ccc3-c3ccc(Cl)cc3)CC2)cc1Oc1cccc2[nH]ccc12 [Example 130, 4-(4-{[4′-chloro-4-(2-morpholin-4-ylethoxy)-1,1′-biphenyl-2-yl]methyl}piperazin-1-yl)-2-(1H-indol-4-yloxy)-N-({3-nitro-4-[(tetrahydro-2H-pyran-4-ylmethyl)amino]phenyl}sulfonyl)benzamide]
Ki (GST-Bcl-2): 0.14 nM | Ki (GST-Bcl-XL): > 660 nM | EC50 (Canine platelets): > 50000 nM | EC50 (FL5.12/Bcl-2 cells): 197 nM

O=C(NS(=O)(=O)c1ccc(NCC2CCOCC2)c([N+](=O)[O-])c1)c1ccc(N2CCN(Cc3cc(CCN4CCCC4)ccc3-c3ccc(Cl)cc3)CC2)cc1Oc1cccc2[nH]ccc12 [Example 25, 4-(4-{[4′-chloro-4-(2-pyrrolidin-1-ylethyl)-1,1′-biphenyl-2-yl]methyl}piperazin-1-yl)-2-(1H-indol-4-yloxy)-N-({3-nitro-4-[(tetrahydro-2H-pyran-4-ylmethyl)amino]phenyl}sulfonyl)benzamide]
Ki (GST-Bcl-2): 0.05 nM | Ki (GST-Bcl-XL): 205 nM | EC50 (Canine platelets): > 50000 nM | EC50 (FL5.12/Bcl-2 cells): 49 nM

O=C(NS(=O)(=O)c1ccc(NCC2CCOCC2)c([N+](=O)[O-])c1)c1ccc(N2CCN(Cc3ccccc3-c3ccc(Cl)cc3)CC2)cc1Oc1ccc2[nH]ccc2c1 [Example 40, 4-{4-[(4′-chloro-1,1′-biphenyl-2-yl)methyl]piperazin-1-yl}-2-(1H-indol-5-yloxy)-N-({3-nitro-4-[(tetrahydro-2H-pyran-4-ylmethyl)amino]phenyl}sulfonyl)benzamide]
Ki (GST-Bcl-2): 0.534 nM | Ki (GST-Bcl-XL): > 660 nM | EC50 (Canine platelets): > 50000 nM | EC50 (FL5.12/Bcl-2 cells): 165 nM
